Experimental data as given in patent US20220220100A1 (SOLUTIA CANADA INC., priority 2019, published 2022).

Key:
Assay type in all cases: physicochemical
[1] = Photostationary state (PSS) and lambda max under simulated sunlight (solar simulator); settings: for PSS (Steady State): head of Table 3; for PSS (Steady State) / PSS (SS): absorbance at photostationary state, 2×10^−5 M solution; for λmax (nm): peak in the visible range, ring-closed (dark) state; for PSS (SS): simulated sunlight (solar simulator)
Source text: The term “photostationary state” (PSS) refers to an equilibrium state of a compound or material where the rate of the ring closing (forward) reaction is equal to the rate of the ring-opening reaction, when irradiated with light in a given region of the spectrum. In other words, the ratio of the ring-open isomer to the ring-closed isomer is at an equilibrium. PSS may be expressed with reference to a light source, or with reference to a type of light, for example, QUV, Xenon-arc lamp, Q-SUN, natural or filtered sunlight, UV, VIS, IR, NIR, full spectrum or the like, or with reference to a particular wavelength or range of wavelengths, or in the presence or absence of a filter. Some ring-open and ring-closed isomers may undergo isomerization from one to the other in response to different wavelengths of light. If a wavelength of light is used where only one of the isomers absorbs, irradiation results in complete isomerization to the other form. 254 nm, 313 nm or 365 nm light are commonly used in studies of UV-absorbing isomers, but this may not be representative of the PSS under other light conditions that include the visible spectrum such as natural or simulated sunlight (“full spectrum” light) and/or with filters that block a portion of the UV component of the light. For example, in a ring-closed (dark) state, the magnitude of the maximum absorbance in the visible range may change with the light source (FIG. 1). The wavelength at this peak in the visible range may be referred to as lambda max, or λmax. […] When full spectrum light from a solar simulator (Xenon arc lamp) is used as a light source (line B), a balance is achieved between the ring-closed (dark) state induced by the UV component, and a ring-open (faded) state induced by the visible component of the light. Inclusion of a UV blocking layer in the light path (line A) may reduce the UV component of the light, and the ring-opening reaction induced by the visible light component becomes more prominent. […] Where desired, the ratio of ring-open and ring-closed isomers at a PSS may be quantified by ^1H NMR spectroscopy, such as described in U.S. Pat. No. 7,777,055. In various embodiments, compounds with an increased absorbance at a photostationary state (PSS), or increased contrast ratio, are an improvement over other diarylethene compounds. A compound with a greater absorbance in the visible range can be used in lesser quantities in a formulation or material to achieve a desired contrast ratio, whereas a compound with a lower absorbance at a PSS may need a higher concentration to achieve a desired contrast ratio.
Photostationary State (PSS)
(§1) UV/Vis spectra were obtained using an OceanOptics™ Spectrophotometer. A 2×10^−5 M solution of compound in solvent was prepared, and photofaded using visible light until absorption in the visible region of the spectrum stabilized. The sample was then irradiated with simulated sunlight (QSUN SS-150 Solar Simulator with xenon arc lamp) until the absorption spectrum stabilized. To obtain PSS in the presence of a UV blocking film, a second sample was prepared and irradiated as described, with a UV blocking film inserted in the light path when irradiating.

[2] = Solubility in Rhodiasolv IRIS solvent; settings: for Solubility in Rhodiasolv IRIS: Rhodiasolv IRIS (dimethyl-2-methyl glutarate), wt %; for Solubility (in words): relative to the methoxy parent chromophore
Source text: A compound with greater solubility allows for a formulation or material with a greater concentration of coloured molecule to be incorporated into a composition. This may allow for increasing the contrast ratio for a compound with a lesser absorbance at PSS. Examples of solubilizing groups for the compound include alkoxy, ether, ester or siloxy groups. In various embodiments, compounds may be soluble in the solvent component at room temperature at about 6 wt %, 7 wt %, 8 wt %, 9 wt %, 10 wt % or greater for testing to determine whether a compound has application as an exterior glazing or optical filter. If the solubility of a compound in the solvent component is too low, then insufficient darkening may be achieved in the ring-closed configuration, depending on conditions of use for the compound.
Chromophore solutions in Rhodiasolv IRIS were prepared at 1 to 10 wt % loading. Solutions were prepared in a glovebox by charging the chromophore and Rhodiasolv IRIS to a trace-clean vial, and the solution was stirred on a hotplate at 90° C. for 2-24 hours. After cooling, the chromophore solution was injected into glass weathering cells and the fill and vent ports were sealed with a thin disc of Kalrez (FFKM Perfluorinated Elastomer) and secured with a clamp and set-screw. The weathering cells were filled and sealed inside the glove box.

[3] = Oxidation potential of ring-closed and ring-open isomers; settings: no unit printed in table (V relative to Ag/AgCl)
Source text: In various embodiments, at a PSS, some of the chromophore will be in the ring-closed isomer, with a small, but non-zero portion of ring-open isomer. The oxidation potential of a ring-open isomer may be more anodic than the oxidation potential of a ring-closed isomer. Exposure to a potential that is too far beyond what is necessary to oxidize the ring-closed isomer may result in oxidation of the ring-open isomer, which may be irreversible and result in electrochemically-induced degradation of the chromophore.
Thus, in various embodiments, an anodic chromophore may have an oxidation potential of from about 0.4 V to 1.2 V for the ring-closed isomer and about 1.0 V to 2.5 V for the ring-open isomer relative to an Ag/AgCl reference electrode. In various embodiments, the oxidation potential for the ring-open isomer is about 250 mV more anodic than the oxidation potential for the ring-closed isomer. For example, the oxidation potential may be about 260 mV, about 280 mV, about 300 mV, about 320 mV, about 340 mV, about 360 mV, about 380 mV, about 400 mV, about 420 mV, about 440 mV, or about 460 mV more anodic than the oxidation potential for the ring-closed isomer.

[4] = UV/Vis absorbance at 400 nm and Yellowness Index of the ring-open isomer; settings: for Abs @ 400 nm, RO (Absorption of ring-open isomer at 400 nm): 2×10^−5 M solution, 1 cm pathlength cuvette
Source text: In addition to the above, chromophores should have acceptable colour for both the ring-opened and ring-closed isomers. For example, the ring-open isomer of the chromophore should have a Yellowness Index (YI) of less than about 10 and an absorbance at 400 nm, as measured for a 2×10^−5 M solution in a 1 cm pathlength cuvette. For the ring-closed isomer of the chromophore, the lambda max should be between about 475 nm and 700 nm, tunable according to desired colour and number of chromophores in the composition.
as §1

Row | SMILES | PSS (Steady State) [1] | λmax (nm) [1] | Solubility in Rhodiasolv IRIS [2] | Solubility (in words) [2] | RC [O] (oxidation potential of ring-closed isomer) [3] | RO [O] (oxidation potential of ring-open isomer) [3] | YI (Yellowness Index) [4] | Abs @ 400 nm, RO (Absorption of ring-open isomer at 400 nm) [4] | PSS (SS) [1]
1 | CCOC(=O)CCCOc1cc2oc(-c3ccc(C(C)(C)C)cc3)c(C3=C(c4cc(-c5ccc(C(C)(C)C)s5)sc4-c4ccc(C(C)(C)C)s4)C(F)(F)C(F)(F)C3(F)F)c2cc1OCCCC(=O)OCC [Chromophore S374, diethyl 4,4′-((2-(4-(tert-butyl)phenyl)-3-(2-(5,5″-di-tert-butyl-[2,2′:5′,2″-terthiophen]-3′-yl)-3,3,4,4,5,5-hexafluorocyclopent-1-en-1-yl)benzofuran-5,6-diyl)bis(oxy))dibutanoate] | 0.422 | 590 nm | >10% | improved | 0.93 | 1.35 | 6.76 | 0.144 | –
2 | COc1cc2oc(-c3ccc(C(C)(C)C)cc3)c(C3=C(c4cc(-c5cc(C(C)(C)C)cs5)sc4-c4cc(C(C)(C)C)cs4)C(F)(F)C(F)(F)C3(F)F)c2cc1OC [Chromophore S377, 2-(4-(tert-butyl)phenyl)-3-(2-(4,4″-di-tert-butyl-[2,2′:5′,2″-terthiophen]-3′-yl)-3,3,4,4,5,5-hexafluorocyclopent-1-en-1-yl)-5,6-dimethoxybenzofuran] | – | 593 nm | >5% | – | 0.97 | 1.42 | 4.89 | 0.101 | 0.308
3 | COc1cc2oc(-c3ccc(C(C)(C)C)cc3)c(C3=C(c4cc(-c5ccc(C(C)(C)C)s5)sc4-c4sc(C(C)(C)C)cc4C)C(F)(F)C(F)(F)C3(F)F)c2cc1OC [Chromophore S378, 2-(4-(tert-butyl)phenyl)-3-(2-(5,5″-di-tert-butyl-3-methyl-[2,2′:5′,2″-terthiophen]-3′-yl)-3,3,4,4,5,5-hexafluorocyclopent-1-en-1-yl)-5,6-dimethoxybenzofuran] | 0.351 | 593 nm | <5% | – | 0.9 | 1.36 | 4.94 | 0.127 | –
4 | CCOC(=O)CCCOc1cc2oc(-c3ccc(C(C)(C)C)cc3)c(C3=C(c4cc(-c5ccc(C(C)(C)C)s5)sc4-c4sc(C(C)(C)C)cc4C)C(F)(F)C(F)(F)C3(F)F)c2cc1OCCCC(=O)OCC [Chromophore S383, diethyl 4,4′-((2-(4-(tert-butyl)phenyl)-3-(2-(5,5″-di-tert-butyl-3-methyl-[2,2′:5′,2″-terthiophen]-3′-yl)-3,3,4,4,5,5-hexafluorocyclopent-1-en-1-yl)benzofuran-5,6-diyl)bis(oxy))dibutanoate] | 0.408 | 590 nm | >10% | improved solubility | 0.91 | 1.36 | 4.52 | 0.144 | –
5 | CCOC(=O)CCCOc1cc2oc(-c3ccc(C(C)(C)C)cc3)c(C3=C(c4cc(-c5sc(C(C)(C)C)cc5C)sc4-c4sc(C(C)(C)C)cc4C)C(F)(F)C(F)(F)C3(F)F)c2cc1OCCCC(=O)OCC [Chromophore S384, diethyl 4,4′-((2-(4-(tert-butyl)phenyl)-3-(2-(5,5″-di-tert-butyl-3,3″-dimethyl-[2,2′:5′,2″-terthiophen]-3′-yl)-3,3,4,4,5,5-hexafluorocyclopent-1-en-1-yl)benzofuran-5,6-diyl)bis(oxy))dibutanoate] | 0.342 | 593 nm | >10% | – | 0.87 | 1.31 | 4.13 | 0.107 | –
6 | CCOC(=O)CCCOc1cc2oc(-c3ccc(C(C)(C)C)cc3)c(C3=C(c4cc(-c5cc(C(C)(C)C)cs5)sc4-c4cc(C(C)(C)C)cs4)C(F)(F)C(F)(F)C3(F)F)c2cc1OCCCC(=O)OCC [Chromophore S386, diethyl 4,4′-((2-(4-(tert-butyl)phenyl)-3-(2-(4,4″-di-tert-butyl-[2,2′:5′,2″-terthiophen]-3′-yl)-3,3,4,4,5,5-hexafluorocyclopent-1-en-1-yl)benzofuran-5,6-diyl)bis(oxy))dibutanoate] | – | 593 nm | >10% | – | 0.99 | 1.4 | 4.05 | 0.113 | 0.351
7 | CCOC(=O)CCCOc1cc2oc(-c3ccc(C(C)(C)C)cc3)c(C3=C(c4cc(-c5cc6c(s5)C(C)(C)CCC6(C)C)sc4-c4cc5c(s4)C(C)(C)CCC5(C)C)C(F)(F)C(F)(F)C3(F)F)c2cc1OCCCC(=O)OCC [Chromophore S387, ethyl 4-[(3-{2-[2,5-bis(4,4,7,7-tetramethyl-4,5,6,7-tetrahydro-1-benzothiophen-2-yl)thiophen-3-yl]-3,3,4,4,5,5-hexafluorocyclopent-1-en-1-yl}-2-(4-tert-butylphenyl)-6-(4-ethoxy-4-oxobutoxy)-1-benzofuran-5-yl)oxy]butanoate] | – | 594 nm | >10% | – | 0.92 | 1.29 | 8.15 | 0.146 | 0.409
